According to patent US4912215A, “Q-1047 Substances” (Yamanouchi Pharmaceutical Co., Ltd., priority 1989, dated 1990):

Experiments:
[1] = Solubility; format: physicochemical; conditions: for Solubility in dioxane, toluene, benzene, chloroform: toluene (printed tolueno)
[2] = Antioxidant activity (decolorization of DPPH radical); format: biochemical; conditions: for reduction of absorbance due to DPPH at 517 nm: 0.1 mM DPPH in ethanol, 30 minutes; for antioxidant activity of the detected/isolated substance: TLC-detected or isolated substance in preparation examples, test not detailed
Procedure: Generally, substances called antioxidants can decolorize 1,1-diphenyl-2-picrylhydrazyl (DPPH), which is a stable radical.
Thus, DPPH was dissolved in ethanol to a concentration of 0.1 mM, the test compound was admixed with the solution and, 30 minutes later, the absorbance was determined at 517 nm.

[3] = Basic, neutral or acidic nature; format: physicochemical
[4] = system: Puromycin aminonucleoside (PAN) nephrosis rats; experiment: Effect on puromycin nephritis (PAN nephrosis rats); format: in vivo, Male Sprague-Dawley rats; conditions: 10 mg/kg i.p. daily
Procedure: Male Sprague-Dawley rats (weighing 180-200 g) were used. Puromycin aminonucleoside (PAN) nephrosis rats were prepared by single intraperitoneal administration of 50 mg/kg of PAN. Throughout the experiment, the rats were fed in metabolic cages and received a solid diet for rats and tap water ad libitum. Urine samples were collected at timed intervals for 24 hours and assayed for protein content. The test drug, suspended in a 0.5% methylcellulose solution, was intraperitoneally administered daily. After the administration period, kidneys were excised, and thin sections were prepared therefrom in the conventional manner and examined microscopically.

[5] = Superoxide anion scavenging activity (method of McCord and Fridovich, xanthine/xanthine oxidase, ferricytochrome C); format: biochemical; conditions: for concentration dependency of superoxide anion scavenging activity: FIG. 30, FIG. 31, FIG. 32; for SOD-like activity of the detected/isolated substance: TLC-detected substance in preparation examples, test not detailed; for IC50 / superoxide anion scavenging activity (in words): pH 7.8, 25° C.; for IC50: xanthine/xanthine oxidase, ferricytochrome C, read-out: concentration of the compound which showed one unit of SOD activity (50% reduction of increase in absorbance at 550 nm); for superoxide anion scavenging activity (in words): same reaction system
Procedure: The compounds according to the invention were tested for superoxide anion scavenging activity by the method of McCord and Fridovich [J. Biol. Chem., 244 (22), 6049-6055 1969) . Thus, xanthine oxidase was added to 5 ×10^-2 M potassium phosphate buffer (pH 7.8) containing 1 ×10^-4 M EDTA, 1×10^-5 M ferricytochrome C and 5×10^-5 M xanthine to give a reaction system in which the rate of increase in absorbance at 550 nm as determined at 25° C. amounted to 0.025 per minute.

[6] = Acute toxicity in mice; conditions: mouse, in vivo, ip

| Structure (SMILES) | Solubility in dioxane, toluene, benzene, chloroform [1] | Solubility in ethyl acetate, acetonitrile, acetone, ethanol, methanol [1] | Solubility in water, hexane [1] | reduction of absorbance due to DPPH at 517 nm [2] | antioxidant activity of the detected/isolated substance [2] | Basic, neutral or acidic [3] | Solubility in dioxane, chloroform, ethyl acetate, acetonitrile [1] | Solubility in toluene, benzene, ethanol, methanol [1] | urinary protein level ([4]; PAN 50 mg/kg i.p. single, compared with PAN alone on 7th day) | kidney tissue examination (glomerular changes or abnormalities) ([4]; compared with PAN alone) | concentration dependency of superoxide anion scavenging activity [5] | SOD-like activity of the detected/isolated substance [5] | IC50 [5] | superoxide anion scavenging activity (in words) [5] | LD50 [6] |
| --- | --- | --- | --- | --- | --- | --- | --- | --- | --- | --- | --- | --- | --- | --- | --- |
| CC1=CC(C)C(O)c2cc(O)cc(c2O)NC(=O)C(C)C(=O)C(C)C1 (stereo not drawn) [Q-1047H-R-A] | sparingly | Soluble | insoluble | reduced the absorbance due to DPPH | antioxidant activity | Neutral |  |  |  |  |  |  |  |  |  |
| CC1=CC(C)C(O)C2=CC(=O)C=C(NC(=O)C(C)C(=O)C(C)C1)C2=O (stereo not drawn) [Q-1047H-A-A] |  |  | insoluble |  |  | Neutral | Soluble | sparingly | almost no increase in urinary protein was observed | such changes or abnormalities were lesser in extent and lower in incidence | concentration-dependent | SOD-like activity | 25 µM | have superoxide anion scavenging activity |  |
| CC1=CC(C)C(OC2CCC(O)C(C)O2)C2=CC(=O)C=C(NC(=O)C(C)C(=O)C(C)C1)C2=O (stereo not drawn) [Q-1047-A] |  |  | insoluble |  |  | Neutral | Soluble | sparingly |  |  | dependent on the concentration | SOD-like activity | 5.6 µM |  |  |
| CC1=CC(C)C(OC2CCC(O)C(C)O2)C2=CC(=O)C=C(NC(=O)C(C)C(=O)C(C)C1)C2=O (stereo not drawn) [Q-1047-B] |  |  | insoluble |  |  | Neutral | Soluble | sparingly |  |  | dependent on the concentration | SOD-like activity | 35 µM |  |  |
| CC1=CC(C)C(O)C2=CC(=O)C=C(NC(=O)C(C)C(=O)C(C)C1)C2=O (stereo not drawn) [Q-1047H-A-B] |  |  | insoluble |  |  | Neutral | Soluble | sparingly |  |  | concentration-dependent | SOD-like activity | 22 µM | have superoxide anion scavenging activity |  |
| CC1=CC(C)C(OC2CCC(O)C(C)O2)c2cc(O)cc(c2O)NC(=O)C(C)C(=O)C(C)C1 (stereo not drawn) [Q-1047R-A] | sparingly | Soluble | insoluble | reduced the absorbance due to DPPH | antioxidant activity | Neutral |  |  |  |  |  |  |  |  | > 500 mg/kg |
